Measured values taken from patent US11926619B2, “Certain pladienolide compounds and methods of use” (EISAI R&D MANAGEMENT CO., LTD., priority 2018, dated 2024).

What was measured:
SF3b complexes = molecular target: T1, SF3b complexes (Homo sapiens, UniProt O75533+Q7RTV0); experiment: Scintillation proximity assay (SPA) with [3H]-labelled pladienolide probe; assay type: binding; details: wt SF3B1, read-out: SPA (wt SF3B1 cells) IC50
T1 construct: endogenous in cells
Procedure: Batch immobilization of anti-SF3B1 antibody (MBL) to anti-mouse PVT SPA scintillation beads (PerkinElmer) was prepared as follows: for every 2.5 mg of nuclear extracts, 5 μg anti-SF3B1 antibody and 1.5 mg of beads were mixed in 150 μl PBS. The antibody-bead mixture was incubated for 30 min at RT and centrifuged at 18,000 g for 5 min. 150 μl PBS was used to resuspend every 1.5 mg antibody-bead mixture. The beads were suspended and added to the prepared nuclear extracts. The slurry was incubated for 2 h at 4° C. with gentle mixing. The beads were then collected by centrifuging at 18,000 g for 5 min, and washed twice with PBS+0.1% Triton X-100. After a final centrifugation step, every 1.5 mg of beads was suspended with 150 μl of PBS. The SF3b complexes were tested for [^3H]-labelled pladienolide probe binding ([^3H]-PB), synthesized as previously described (Kotake et al., 2007). 100 μL binding reactions were prepared with 50 μl bead slurry and by adding varying concentrations of PB or PB—OH, and after 30 min pre-incubation, 2.5 nM [^3H]—PB was added. The mixture was incubated for 30 min, and luminescence signals were read using a MicroBeta2 Plate Counter (PerkinElmer). Prism 6 (Graphpad) was used for non-linear regression curve fitting of the data.

[1] = system: Panc 05.04 cells (pancreatic cancer cells; Q699H and K700E mutations in SF3B1); experiment: Cell viability assay (CellTiter-Glo, 72 hr), Panc 05.04 cells; assay type: cell-based; details: Panc 05.04 cells (mutant SF3B1); for Emax: maximum achievable response in tested dose range, negative value = cellular lethality, read-out: Panc 05.04 (mt SF3B1 cells) Emax (%); for GI50: read-out: Panc 05.04 (mt SF3B1 cells), GI50
Procedure: (§1) Cells (WiDr and Panc05.04 obtained from ATCC) were seeded in 96-well plates, with 2000 cells/100 μL/well, and incubated overnight. Spent media was removed, and fresh media containing 9 different concentrations of compound (100 μL/well) were added, with DMSO concentration from compound stock solution adjusted to be 0.1%. Each compound treatment was done in duplicate or triplicate at each concentration.
(§2) Another plate with cells seeded was dedicated as a time zero (Tz) plate, to which was added 0.1% DMSO in media (100 μL/well) followed by CellTiter-Glo® reagent (Promega Corporation, Madison, Wisconsin) (50 μL/well) for ATP measurement as a surrogate of cell viability. Average value from measurement of multiple wells of this plate is used as Tz. Compound-treated plates were incubated for 72 hr at 37° C. Then, CellTiter-Glo® reagent (50 μL/well) was added and ATP was measured. Average value from measurement of the duplicate or triplicate compound-treated wells is used as Ti, and seeded plates with medium having 0.1% DMSO without compound is used as control growth (C).
(§3) Percentage growth inhibition/Percentage viability was calculated as:
(§4) [(Ti−Tz)/(C−Tz)]×100 for concentrations for which Ti>/=Tz
(§5) [(Ti−Tz)/Tz]×100 for concentrations for which Ti<Tz.
(§6) *time zero (Tz), control growth (C), and test growth in the presence of compound (Ti) Percentage growth inhibition/Percentage viability are plotted versus compound concentration to determine Emax.
(§7) Emax refers to the maximum achievable response to a compound in a tested dose range, with a negative value indicating cellular lethality. A larger negative Emax value indicates greater cellular lethality for a particular compound.

[2] = system: WiDr cells (colon cancer cells; wildtype SF3B1); experiment: Cell viability assay (CellTiter-Glo, 72 hr), WiDr cells; assay type: cell-based; details: Homo sapiens; WiDr cells (wildtype SF3B1); read-out: WiDr GI50
Procedure: as §1, §2, §3, §4, §5, §6
Emax refers to the maximum achievable response to a compound in a tested dose range, with a negative value indicating cellular lethality. A larger negative Emax value indicates greater cellular lethality for a particular compound. […]

[3] = system: WiDr-R cells (colon cancer cells; chemically-induced SF3B1 R1074H mutant); experiment: Cell viability assay (CellTiter-Glo, 72 hr), resistant WiDr-R cells (counter-screen); assay type: cell-based; details: WiDr-R cells (SF3B1 R1074H mutation, resistant); read-out: WiDr-R GI50
Procedure: as §1, §2, §3, §4, §5, §6, §7
The counter-screening of compounds in this viability assay with a “resistant” WiDr-R cell line may indicate whether these compounds have off-target effect(s).

Row | Structure (SMILES) | IC50 (SF3b complexes) | Emax [1] | GI50 [1] | GI50 [2] | GI50 [3]
1 | CC[C@H](O)[C@@H](C)[C@H]1O[C@@H]1C[C@@](C)(O)/C=C/C=C(\C)[C@H]1OC(=O)C[C@H](O)CC[C@@](C)(OC)[C@@H](OC(=O)N2CCNC(CCC(=O)O)C2)/C=C/[C@@H]1C (some centres unmarked) | 29.2 nM |  |  |  | 
2 | C/C(=C\C=C\[C@@H](C)c1ccccn1)[C@H]1OC(=O)C[C@H](O)CC[C@@](C)(O)[C@@H](O)/C=C/[C@@H]1C | > 1200 nM | 49.5% | 3980 nM |  | 
3 | CC(=O)O[C@H]1/C=C/[C@H](C)[C@@H](/C(C)=C/C=C/C(c2ccccn2)C(C)C)OC(=O)C[C@H](O)CC[C@@]1(C)O (some centres unmarked) | 20.9 nM |  |  |  | 
4 | CC[C@H](O)[C@@H](C)[C@H]1O[C@@H]1C[C@H](C)/C=C/C=C(\C)[C@H]1OC(=O)C[C@H](O)CC[C@@](C)(OC)[C@@H](OC(=O)N2CCN(C)CC2)/C=C/[C@@H]1C | 1.52 nM |  |  |  | 
5 | C/C(=C\C=C\C(C)c1cccnc1)[C@H]1OC(=O)C[C@H](O)CC[C@@](C)(O)[C@@H](OC(=O)N2CCC(N3CCC(F)(F)CC3)CC2)/C=C/[C@@H]1C (some centres unmarked) | 30.9 nM | -2.9% | 94.8 nM |  | 
6 | CC[C@H](O)[C@@H](C)[C@H]1O[C@@H]1C[C@H](C)/C=C/C=C(\C)[C@H]1OC(=O)C[C@H](O)CC[C@@](C)(OC(=O)N2CCNCC2)[C@@H](OC(C)=O)/C=C/[C@@H]1C | 2.08 nM | -78.9% | 0.86 nM |  | 
7 | C\C(=C/C=C/C=C/[C@@H](C)c1ccccn1)C1OC(=O)C[C@H](O)CC[C@@](C)(O)[C@@H](OC(=O)N2CCN(C3CCCCCC3)CC2)/C=C/[C@@H]1C (some centres unmarked) | 120 nM | 11% | 720 nM |  | 
8 | CC[C@H](O)[C@@H](C)[C@H]1O[C@@H]1C[C@H](C)/C=C/C=C(\C)[C@H]1OC(=O)C[C@H](O)CC[C@@](C)(OC(C)=O)[C@@H](OC(=O)N2CCNCC2)/C=C/[C@@H]1C | 2.12 nM | -47.1% | 2.05 nM |  | 
9 | CC[C@H](O)[C@@H](C)[C@H]1O[C@@H]1C[C@@](C)(O)/C=C/C=C(\C)[C@H]1OC(=O)C[C@H](O)CC[C@@](C)(OC(C)=O)[C@@H](OC(=O)N2CCN(CCO)CC2)/C=C/[C@@H]1C | 24.3 nM |  |  |  | 
10 | CC[C@H](O)[C@@H](C)[C@H]1O[C@@H]1C[C@H](C)/C=C/C=C(\C)[C@H]1OC(=O)C[C@H](O)CC[C@@](C)(OC)[C@@H](OC(=O)N2CCNCC2)/C=C/[C@@H]1C | 0.99 nM |  |  |  | 
11 | CC[C@H](O)[C@@H](C)[C@H]1O[C@@H]1C[C@@](C)(O)/C=C/C=C(\C)[C@H]1OC(=O)C[C@H](O)CC[C@@](C)(OC(C)=O)[C@@H](OC(=O)N2C[C@@H]3C[C@H]2CN3)/C=C/[C@@H]1C | 16 nM |  |  |  | 
12 | CC[C@H](O)[C@@H](C)[C@H]1O[C@@H]1C[C@@](C)(O)/C=C/C=C(\C)[C@H]1OC(=O)C[C@H](O)CC[C@@](C)(OC)[C@@H](OC(=O)N(C)CCNC)/C=C/[C@@H]1C | 18.3 nM |  |  |  | 
13 | CC[C@H](O)[C@@H](C)C(=O)OC[C@H](C)/C=C/C=C(\C)[C@H]1OC(=O)C[C@H](O)CC[C@@](C)(O)[C@@H](OC(C)=O)/C=C/[C@@H]1C |  | -90.5% | 31.1 nM | 42.8 nM | > 10000 nM
14 | C/C(=C\C=C\[C@@H](C)COC(=O)N1[C@H](C)CC[C@H]1C)[C@H]1OC(=O)C[C@H](O)CC[C@@](C)(O)[C@@H](OC(=O)N2CCN(C3CCCCCC3)CC2)/C=C/[C@@H]1C |  | -68.9% | 4.52 nM | 2.39 nM | 14.8 nM
15 | C/C(=C\C=C\C1(COC(=O)N2CCCC2)CC1)[C@H]1OC(=O)C[C@H](O)CC[C@@](C)(O)[C@@H](OC(=O)N2CCN(C3CCCCCC3)CC2)/C=C/[C@@H]1C |  | -24.7% | 302 nM | 138 nM | > 1000 nM
16 | C/C(=C\C=C\CCOC(=O)N1CCCC1)[C@H]1OC(=O)C[C@H](O)CC[C@@](C)(O)[C@@H](OC(=O)N2CCN(C)CC2)/C=C/[C@@H]1C |  |  | 58.4 nM | 63.6 nM | > 5500 nM
17 | CC[C@H](O)[C@@H](C)[C@H]1O[C@@H]1C[C@@](C)(O)/C=C/C=C(\C)[C@H]1OC(=O)C[C@H](O)CC[C@@](C)(OC)[C@@H](OC(=O)N2CCN(CCCC(=O)O)CC2)/C=C/[C@@H]1C | 14.6 nM |  |  |  | 
18 | C/C(=C\C=C\[C@@H](C)CN(C)C(=O)N1CCCC1)[C@H]1OC(=O)C[C@H](O)CC[C@@](C)(O)[C@@H](OC(=O)N2CCN(C3CCCCCC3)CC2)/C=C/[C@@H]1C |  | -94.5% | 23.5 nM | 145 nM | > 1000 nM
19 | C/C(=C\C=C\[C@@H](C)COC(=O)N1CCC[C@H]1C(N)=O)[C@H]1OC(=O)C[C@H](O)CC[C@@](C)(O)[C@@H](OC(=O)N2CCN(C3CCCCCC3)CC2)/C=C/[C@@H]1C |  | -92.9% | 40.2 nM | 32.8 nM | > 1000 nM
20 | C/C(=C\C=C\[C@@H](C)c1ccccn1)[C@H]1OC(=O)C[C@H](O)CC[C@@](C)(O)[C@@H](OC(=O)N2CCN(C3CCCCCC3)C(C)C2)/C=C/[C@@H]1C (some centres unmarked) |  | -60.4% | 126 nM | 133 nM | > 1000 nM
21 | C/C(=C\C=C\[C@@H](C)COC(=O)N1CC[C@@H](O)C1)[C@H]1OC(=O)C[C@H](O)CC[C@@](C)(O)[C@@H](OC(=O)N2CCN(C)CC2)/C=C/[C@@H]1C |  | -94.8% | 88.1 nM | 89.9 nM | > 1000 nM
22 | C/C(=C\C=C\[C@@H](C)c1ccccn1)[C@H]1OC(=O)C[C@H](O)CC[C@@](C)(O)[C@@H](OC(=O)N(C)C2CCN(C)CC2)/C=C/[C@@H]1C |  | -60.2% | 25.1 nM | 16.2 nM | > 1000 nM
23 | C/C(=C\C=C\C(C)(C)COC(=O)N1CCCC1)[C@H]1OC(=O)C[C@H](OC(=O)N2CCCC2)CC[C@@](C)(O)[C@@H](OC(=O)N2CCN(C3CCCCCC3)CC2)/C=C/[C@@H]1C |  | -92.4% | 86.3 nM | 41.4 nM | 1880 nM
24 | C/C(=C\C=C\[C@@H](C)COC(=O)N1CCC2(COC2)C1)[C@H]1OC(=O)C[C@H](O)CC[C@@](C)(O)[C@@H](OC(=O)N2CCN(C3CCCCCC3)CC2)/C=C/[C@@H]1C |  | -76.4% | 7.98 nM | 6.39 nM | 603 nM
25 | C/C(=C\C=C\[C@@H](C)COC(=O)N1CC[C@H](F)C1)[C@H]1OC(=O)C[C@H](O)CC[C@@](C)(O)[C@@H](OC(=O)N2CCN(C)CC2)/C=C/[C@@H]1C |  | -90.2% | 4.86 nM | 2.84 nM | > 1000 nM
26 | C/C(=C\C=C\[C@@H](C)CO)[C@H]1OC(=O)C[C@H](O)CC[C@@](C)(O)[C@@H](OC(=O)N2CCN(C)CC2)/C=C/[C@@H]1C |  | 35.1% | 1390 nM | 1150 nM | > 10000 nM
27 | C/C(=C\C=C\[C@@H](C)COC(=O)N1CC[C@@H](Oc2nnnn2-c2ccccc2)C1)[C@H]1OC(=O)CCCC[C@@](C)(O)[C@@H](OC(=O)N2CCN(C)CC2)/C=C/[C@@H]1C |  | -94.9% | 37.3 nM | 31.6 nM | > 1000 nM
28 | C/C(=C\C=C\[C@@H](C)CNC(=O)C1CCCC1)[C@H]1OC(=O)C[C@H](O)CC[C@@](C)(O)[C@@H](OC(=O)N2CCN(C)CC2)/C=C/[C@@H]1C |  | -57% | 137 nM | 263 nM | > 1000 nM
29 | C/C(=C\C=C\Cc1ccccn1)[C@H]1OC(=O)C[C@H](O)CC[C@@](C)(O)[C@@H](OC(=O)N2CCN(C3CCCCCC3)CC2)/C=C/[C@@H]1C |  | 63.5% | > 4000 nM | 148 nM | > 1000 nM
